Results published in PMC4819177, “The rational search for selective anticancer derivatives of the peptide Trichogin GA IV: a multi-technique biophysical approach” (Scientific Reports, 2016).
“Also recorded” adds a separate entry of the source. Square brackets hold non-standard residues; d marks the D form. Peptide text beside a SMILES is read from it. * marks the point of attachment. TOAC = CC1(C)CC(N)(C(=O)O)CC(C)(C)N1[O]; Leu(ol) = CC(C)C[C@H](N)CO; Octanoyl = CCCCCCCC(=O)*; Api = NC1(C(=O)O)CCNCC1; Aib = CC(C)(N)C(=O)O

Legend:
[1] = tested on: HeLa cells; type: cell-based, human; details: MTT, 24 h exposure; average error about ±2 μM
Procedure: (§1) We studied the effect of TG and its analogues on normal (HDF) and transformed (T67 and HeLa) cells. The cellular viability was assessed after 24 hours of exposure to the peptides by the MTT assay (Table 1).
(§2) Culture media, foetal bovine serum (FBS) and antibiotics were purchased from Carlo Erba Dasit Group. The T67 human glioma cell line was derived by Lauro et al.[49] from a World Health Organization (WHO) Grade III gemistocytic astrocytoma. Human dermal fibroblasts (HDF) were obtained by ATCC. HDF were cultured in Fibroblast Basal Medium (ATCC) supplemented with 10% FBS. T67 and HeLa cells were cultured in Dulbecco’s modified Eagle’s medium (MMedical) supplemented with 10% FBS, 100 UI/ml penicillin, 100 μg/ml streptomycin, and 40 μg/ml gentamycin, and kept in a 5% CO2 atmosphere at 37 °C, with saturating humidity. Cell viability and number were measured by trypan blue exclusion method.
(§3) Cytotoxicity of peptides was estimated using a MTT assay. All the chemicals used for this assay have been purchased by sigma Aldrich and used without further purification. T67, HeLa and HDF cells were seeded in 24-well plates at 1 × 10^5 cells/well. Experiments were performed after 24 h of incubation at 37 °C in 5% CO2. After this time cells were washed and treated for 24 h with different concentrations of peptides; the cells are then incubated for 60 mins with 300 μM of MTT in culture medium. The absorbance of each well was measured at 450 nm with a spectrofluorometer (Wallac Victor multilabel counter; Perkin-Elmer Inc., Boston, MA, USA). Data are reported as the mean ± standard deviation of at least three independent experiments.

[2] = tested on: T67 human glioma cell line; type: cell-based; details: MTT, 24 h exposure; average error about ±2 μM
Procedure: as §1, §2, §3

[3] = tested on: human dermal fibroblasts (HDF); type: cell-based; details: MTT, 24 h exposure; average error about ±2 μM
Procedure: as §1, §2, §3

[4] = tested on: T67, HeLa and HDF cells; test: MTT cytotoxicity assay, summary over the three cell lines; type: cell-based, human; details: 24 h
Procedure: as §1, §3

[5] = Dynamic light scattering of POPC SUV with peptides; type: physicochemical; details: POPC SUV 2 mM, P:L 1:100
Procedure: The dimension of the SUV prepared by sonication was verified by dynamic light scattering (DLS). Additionally we checked if the peptides at a P:L ratio 1:100, the ratio used for EPR experiments, alter the dimension of the SUV. The experiments were perfomed on POPC SUV (2 mM) with and without peptides. We chose a toxic peptide, [Arg^2] TG, and a non-toxic peptide, [Leu^4] TG. The average diameter of the SUV in this preparation is about 21±6 nm (when counting the size distribution by numer).

[6] = tested on: HeLa cells; test: Fluorescence microscopy of FITC-labelled peptides; type: cell-based, human; details: 0.5 μM, 3 hours; for state of the cells / membrane lysis: bright field; for cellular localization of the fluorescent label: green fluorescence
Procedure: HeLa cells were treated for 3 hours with 0.5 μM of TG and [Lys^6] […] The cells treated with [FITC^11] […] Conversely, treatment with [Lys^6, FITC^11] […] It has been shown that some AMP act not on the plasma membrane, but on the mitochondria.
HeLa cells were washed with PBS (NaCl 137 mM, KCl 2.7 mM, Na2HPO4 10 mM, KH2PO4 1.8 mM, pH 7.4), detached with 0.05% trypsin–EDTA solution and centrifuged for 3 min at 300 × g. The pellet was resuspended in DMEM medium and cells were counted by using trypan blue exclusion method. Then, 5 × 10^3 cells were seeded on custom chambers[58] with glass bottom, in 100 μL of complete DMEM medium and incubated at 37 °C in a humidified atmosphere with 5% CO2. After 24 h, cells were washed with PBS and incubated for 3 hours with […] of [FITC^11] TG and [Lys^6, FITC^11] TG dissolved in DMEM. After this time, cells were carefully washed with PBS, then 50 μL of PBS supplemented with calcium and magnesium (NaCl 137 mM, KCl 2.7 mM, Na2HPO4 10 mM, KH2PO4 1.8 mM, CaCl2 1 mM, MgCl2 0.5 mM, pH 7.4) was added to each chamber. Finally, chambers were mounted on the microscope stage for analysis. Micrographs were acquired on a Zeiss Axiovert 200 inverted microscope equipped with XBO xenon 75 W short arc lamp and a Photometrics Coolsnap FX CCD camera (Roper Scientific) with Metafluor Imaging Software version 6.1r6 (Universal Imaging Inc.) at λexc = 500 nm, λem = 545 nm.
We performed fluorescence microscopy experiments with rhodamine, which selectively stains mitochondria, to exclude that TG analogs penetrate inside the mitochondria and are localized only on the plasmatic membrane. Rhodamine staining is shown in FigureS5.B in red. The merged images of the experiments on [FITC^11]

Row | Compound | EC50 [1] [µM] | EC50 [2] [µM] | EC50 [3] [µM] | also measured
1 | CCCCCCCC(=O)NC(C)(C)C(=O)NCC(=O)N[C@@H](CC(C)C)C(=O)NC(C)(C)C(=O)NCC(=O)NCC(=O)N[C@@H](CC(C)C)C(=O)NC(C)(C)C(=O)NCC(=O)N[C@H](C(=O)N[C@H](CO)CC(C)C)[C@@H](C)CC [TG, 1-Oct-Aib-Gly-Leu-Aib-Gly-Gly-Leu-Aib-Gly-Ile-Lol, reference compound] (Octanoyl-[Aib]GL[Aib]GGL[Aib]GI[Leu(ol)]) | 8 | 2 | 4 | –
2 | CCCCCCCC(=O)NC(C)(C)C(=O)NCC(=O)N[C@@H](CC(C)C)C(=O)NC(C)(C)C(=O)NCC(=O)NCC(=O)N[C@@H](CC(C)C)C(=O)NC1(C(=O)NCC(=O)N[C@H](C(=O)N[C@H](CO)CC(C)C)[C@@H](C)CC)CCNCC1 [[Api^8] TG, Oct-UGLUGGLZGI-Lol] (Octanoyl-[Aib]GL[Aib]GGL[Api]GI[Leu(ol)]) | > 20 | – | > 20 | cytotoxicity / selectivity in words [4]: selective cytotoxicity towards a cancer cell line
3 | CCCCCCCC(=O)NC(C)(C)C(=O)N[C@@H](CCCNC(=N)N)C(=O)N[C@@H](CC(C)C)C(=O)NC(C)(C)C(=O)NCC(=O)NCC(=O)N[C@@H](CC(C)C)C(=O)NC(C)(C)C(=O)NCC(=O)N[C@H](C(=O)N[C@H](CO)CC(C)C)[C@@H](C)CC [[Arg^2] TG, Oct-URLUGGLUGI-Lol] (Octanoyl-[Aib]RL[Aib]GGL[Aib]GI[Leu(ol)]) | 4 | 8 | 8 | DLS Distribution by Number Peak 1, diameter [5]: 24 nm; DLS Distribution by Number Peak 1, fraction [5]: 100%; DLS Distribution by Volume Peak 1, diameter [5]: 28 nm; DLS Distribution by Volume Peak 1, fraction [5]: 92%; DLS Distribution by Volume Peak 2, diameter [5]: 5430 nm; DLS Distribution by Volume Peak 2, fraction [5]: 3%; DLS Distribution by Volume Peak 3, diameter [5]: 135 nm; DLS Distribution by Volume Peak 3, fraction [5]: 5%; effect of peptide on the dimension of the vesicles [5]: does not alter the dimension of the vesicles in a significant way
4 | CCCCCCCC(=O)NC(C)(C)C(=O)NCC(=O)N[C@@H](CC(C)C)C(=O)NC(C)(C)C(=O)NCC(=O)N[C@@H](CCCCN)C(=O)N[C@@H](CC(C)C)C(=O)NC(C)(C)C(=O)NCC(=O)N[C@H](C(=O)N[C@H](CO)CC(C)C)[C@@H](C)CC [[Lys^6] TG, Oct-UGLUGKLUGI-Lol] | 2 | 4 | 2 | –
5 | CCCCCCCC(=O)NC1(C(=O)N[C@@H](CCCNC(=N)N)C(=O)N[C@@H](CC(C)C)C(=O)NC(C)(C)C(=O)NCC(=O)NCC(=O)N[C@@H](CC(C)C)C(=O)NC(C)(C)C(=O)NCC(=O)N[C@H](C(=O)N[C@H](CO)CC(C)C)[C@@H](C)CC)CC(C)(C)N([O])C(C)(C)C1 [[TOAC^1, Arg^2] TG, Oct-XRLUGGLUGI-Lol] (Octanoyl-[TOAC]RL[Aib]GGL[Aib]GI[Leu(ol)]) | 9 | 8 | 15 | –
6 | CCCCCCCC(=O)NC1(C(=O)NCC(=O)N[C@@H](CC(C)C)C(=O)NC(C)(C)C(=O)NCC(=O)NCC(=O)N[C@@H](CC(C)C)C(=O)NC(C)(C)C(=O)N[C@@H](CCCNC(=N)N)C(=O)N[C@H](C(=O)N[C@H](CO)CC(C)C)[C@@H](C)CC)CC(C)(C)N([O])C(C)(C)C1 [[TOAC^1, Arg^9] TG, Oct-XGLUGGLURI-Lol] (Octanoyl-[TOAC]GL[Aib]GGL[Aib]RI[Leu(ol)]) | 5 | 8 | 8 | –
7 | CCCCCCCC(=O)NC1(C(=O)NCC(=O)N[C@@H](CC(C)C)C(=O)N[C@@H](CC(C)C)C(=O)NCC(=O)NCC(=O)N[C@@H](CC(C)C)C(=O)NC(C)(C)C(=O)NCC(=O)N[C@H](C(=O)N[C@H](CO)CC(C)C)[C@@H](C)CC)CC(C)(C)N([O])C(C)(C)C1 [[TOAC^1, Leu^4] TG, Oct-XGLLGGLUGI-Lol] (Octanoyl-[TOAC]GLLGGL[Aib]GI[Leu(ol)]) | – | – | – | cytotoxicity / selectivity in words [4]: no toxicity
8 | CCCCCCCC(=O)NC1(C(=O)NCC(=O)N[C@@H](CC(C)C)C(=O)NC(C)(C)C(=O)N[C@@H](CCCCN)C(=O)N[C@@H](CCCCN)C(=O)N[C@@H](CC(C)C)C(=O)NC(C)(C)C(=O)NCC(=O)N[C@H](C(=O)N[C@H](CO)CC(C)C)[C@@H](C)CC)CC(C)(C)N([O])C(C)(C)C1 [[TOAC^1, Lys^5,6] TG, Oct-XGLUKKLUGI-Lol] | 6 | 10 | 15 | –
9 | CCCCCCCC(=O)NC1(C(=O)NCC(=O)N[C@@H](CC(C)C)C(=O)NC(C)(C)C(=O)NCC(=O)N[C@@H](CCCCN)C(=O)N[C@@H](CC(C)C)C(=O)NC(C)(C)C(=O)NCC(=O)N[C@H](C(=O)N[C@H](CO)CC(C)C)[C@@H](C)CC)CC(C)(C)N([O])C(C)(C)C1 [[TOAC^1, Lys^6] TG, Oct-XGLUGKLUGI-Lol] | 3 | 1 | 5 | cytotoxicity / selectivity in words [4]: most toxic peptide on all the cell lines
10 | Oct-UGLLGGLUGI-Lol [[Leu^4] TG] | > 20 | > 20 | > 20 | DLS Distribution by Number Peak 1, diameter [5]: 20 nm; DLS Distribution by Number Peak 1, fraction [5]: 100%; DLS Distribution by Volume Peak 1, diameter [5]: 30 nm; DLS Distribution by Volume Peak 1, fraction [5]: 96%; DLS Distribution by Volume Peak 2, diameter [5]: 4993 nm; DLS Distribution by Volume Peak 2, fraction [5]: 4%; effect of peptide on the dimension of the vesicles [5]: does not alter the dimension of the vesicles in a significant way
11 | Oct-UGLUGGLUGIL-FITC [[FITC^11] TG] | – | – | – | state of the cells / membrane lysis [6]: keeps the cells intact; also recorded: largely intact; cellular localization of the fluorescent label [6]: mainly located in the outer plasma membrane; colocalization with rhodamine (mitochondria) ([6]; rhodamine staining): no significant colocalization
12 | Oct-UGLUGKLUGIL- FITC [[Lys^6, FITC^11] TG] | – | – | – | state of the cells / membrane lysis [6]: severe membrane lysis; cellular localization of the fluorescent label [6]: mainly located in the outer plasma membrane
13 | Oct-XGLUGGLLGI-Lol [[TOAC^1, Leu^8] TG] | > 20 | > 20 | > 20 | –
